# According to PMC8507260, “A2E-induced inflammation and angiogenesis in RPE cells in vitro are modulated by PPAR-α, -β/δ, -γ, and RXR antagonists and by norbixin” (Aging (Albany NY), 2021):
# How the values were obtained:
# IL-8 = IL-8 mRNA expression by quantitative RT-PCR in porcine RPE cells; assay type: cell-based; settings: A2E 20 μM; MK886 1 μM, GSK3787 1 μM, T007907 10 μM, HX531 5 μM
# Description: (§1) Pig eyes were obtained from a local slaughterhouse and transported to the laboratory in ice-cold Ringer solution. After removal of the anterior segment of the eye, the vitreous and neural retina was separated from the RPE and removed. The eyecup was washed twice with phosphate buffer saline (PBS), filled with trypsin (0.25% in PBS) and incubated at 37°C for 1.5 h. RPE cells were harvested by gently pipetting, centrifuged to remove trypsin and re-suspended in Dulbecco’s Modified Eagle Medium (DMEM) supplemented with 20% (v/v) foetal-calf serum (DMEM20%FCS) and 0.1% gentamycin. Cells were seeded into 60 mm diameter Petri dishes, cultured in an atmosphere of 5% CO2/95% air at 37°C, and supplied with fresh medium after 24 hours and 4 days in vitro. For experiments aimed at measuring mRNA or protein expression in RPE, cells were trypsinized after one week in culture and transferred to 24-well or 6-well plates at a density of 1.5 × 10^5 cells/cm^2 in DMEM2%FCS. Norbixin or agonists were added to the medium 24 h after seeding, and antagonists were added to the medium 24 h later. A2E treatment was performed during 19 h before cellular sample preparation. All the drugs used in these experiments were prepared as stock solutions in DMSO.
# (§2) Total RNA was extracted using the NucleoSpin® RNA kit according to manufacturer’s instructions. RT of 500 ng of RNA was performed using the SuperScript III Reverse Transcriptase following the manufacturer’s instructions. Five ng of cDNA were amplified using the SYBR GREEN real-time PCR method. PCR primers for target genes and housekeeping gene GAPDH were designed using Primer3Plus Bioinformatic software (Table 2). The RT-PCR using the StepOne Plus (Life Technologies, Carlsbad, CA, USA) consisted of incubation at 50°C for 5 min followed by 40 cycles of 95°C for 15 s and of 60°C for 1 min. The reaction was completed by a melt curve stage at 95°C for 15 s, 60°C for 1 min, 95°C for 15 s and a final step at 60°C for 15 s. The relative mRNA expression was calculated using the comparative threshold method (Ct-method) with GAPDH for normalization. All experimental conditions were processed in triplicate and each experiment was done at least 3 times.
# PPAR = test: Endogenous PPAR transactivation, luciferase reporter in primary porcine RPE cells; assay type: cell-based; settings: A2E 20 μM; for effect on endogenous PPAR transactivation induced by A2E: MK886 1 μM, GSK3787 1 μM, T007907 10 μM, separately or as mixture
# Description: as §1
# (§3) After one week in culture, cells were trypsinized and transferred to a 96-well plate at a density of 6 × 10^4 cells/cm^2 in DMEM2%FCS. The next day, cells were transfected using the Cignal Reporter Assay Kits for PPAR, RXR, AP-1 and NF-κB, according to the manufacturer’s specifications. To measure the specific activation of PPAR isoforms, cells were also co-transfected with PPAR-α, PPAR-β/δ or PPAR-γ expression vectors. Transfection was performed with Lipofectamine and Plus Reagent in serum-free medium. 3 h after the transfection, the medium was replaced and treatments with the molecules to assay were performed. Luciferase activity was measured the next day using the Dual-Luciferase Reporter Assay System. The measurements were performed with a luminometer (Infinite M1000 from Tecan, Mannedorf, Switzerland). Firefly: Renilla activity ratios were calculated for each condition and ratios from transcription factor-responsive reporter transfections were divided by ratios from negative control transfections to obtain relative luciferase unit, as described by the manufacturer. At least 3 independent transfections were performed in triplicate for each condition.
# IL-6 = IL-6 mRNA expression by quantitative RT-PCR in porcine RPE cells; assay type: cell-based; settings: T007907 10 μM; for reduction of IL-6 mRNA expression induced by A2E: NBX 20 μM with A2E 30 μM, MK886 1 μM, GSK3787 1 μM, HX531 5 μM with A2E 20 μM
# Description: as §1, §2
# RXR = test: Endogenous RXR transactivation, luciferase reporter in porcine RPE cells; assay type: cell-based; settings: NBX 20 μM
# Description: as §1, §3
# NF-κB = NF-κB transactivation, luciferase reporter in porcine RPE cells; assay type: cell-based; settings: A2E 20 μM, T007907 10 μM; for inhibition of NF-κB transactivation induced by A2E: NBX 20 μM, HX531 5 μM
# Description: as §1, §3
# VEGF = VEGF mRNA expression by quantitative RT-PCR in porcine RPE cells; assay type: cell-based; settings: HX531 5 μM + A2E 20 μM
# Description: as §1
# as §2, with “All experimental conditions were processed in triplicate and each experiment was done at least 3 times.” left out
# AP-1 = AP-1 transactivation, luciferase reporter in porcine RPE cells; assay type: cell-based; settings: A2E 20 μM; NBX 20 μM, HX531 5 μM
# Description: as §1
# as §3, with “Transfection was performed with Lipofectamine and Plus Reagent in serum-free medium. 3 h after the transfection, the medium was replaced and treatments with the molecules to assay were performed.” left out, “The measurements were performed with a luminometer (Infinite M1000 from Tecan, Mannedorf, Switzerland).” left out, “At least 3 independent transfections were performed in triplicate for each condition.” left out
# PPAR-α [1] = test: Transactivation of over-expressed PPAR-α, luciferase reporter in porcine RPE cells; assay type: cell-based, pig; settings: vs DMSO control; A2E 20 μM; NBX increasing concentrations
# Description: First, we evaluated the binding profile of A2E to all three isoforms of PPAR. […] Then the effects of A2E on the endogenous PPAR transactivation in porcine RPE cells were investigated by means of a luciferase assay. […] The level of transactivation of PPAR-α, -β/δ, or -γ isoforms by A2E was determined by co-transfection of porcine RPE cells with a plasmid expressing each of the full-length PPAR isoforms and a plasmid expressing luciferase under the control of the PPAR response element. […]. All usual chemicals, primers, and HX531 were from Sigma (St. Louis, MO, USA). Reagents for cell culture, transfection and quantitative RT-PCR were from Thermo Fisher Scientific (Waltham, MA, USA). RNA extraction NucleoSpin® RNA kit was from Macherey Nagel (Düren, Germany). ECL prime and PVDF membrane were from Amersham GE Healthcare (Buckinghamshire, UK). Primary antibodies against the following proteins were used: GAPDH (Santa Cruz Biotechnology, Inc, Dallas, TX, USA); pAKT, AKT, pERK and ERK (Cell Signaling, Danvers, MA, USA). Secondary antibodies were from Jackson ImmunoResearch (Cambridgeshire, UK). […] Cignal Pathway Reporter Assay Kits were from QIAGEN (Frederick, MD, USA). The Dual-Luciferase Reporter Assay System was purchased from Promega (Madison, WI, USA). pcDNA 3.1 (+)-PPARα and pcDNA 3.1 (+)-PPARβ/δ (pig sequence) were purchased from Genscript (Piscataway, NJ, USA). pCMV6-XL4-PPARγ (human sequence) was purchased from Origene (Rockville, MD, USA).
# as §3
# PPAR-α [2] = target: T1, PPAR-α (Homo sapiens, UniProt Q07869); settings: stated without reference; cited from earlier work
# T1 construct: Eurofins Cerep (contract laboratory that ran the assay)
# T1 sequence (Q07869 1-468): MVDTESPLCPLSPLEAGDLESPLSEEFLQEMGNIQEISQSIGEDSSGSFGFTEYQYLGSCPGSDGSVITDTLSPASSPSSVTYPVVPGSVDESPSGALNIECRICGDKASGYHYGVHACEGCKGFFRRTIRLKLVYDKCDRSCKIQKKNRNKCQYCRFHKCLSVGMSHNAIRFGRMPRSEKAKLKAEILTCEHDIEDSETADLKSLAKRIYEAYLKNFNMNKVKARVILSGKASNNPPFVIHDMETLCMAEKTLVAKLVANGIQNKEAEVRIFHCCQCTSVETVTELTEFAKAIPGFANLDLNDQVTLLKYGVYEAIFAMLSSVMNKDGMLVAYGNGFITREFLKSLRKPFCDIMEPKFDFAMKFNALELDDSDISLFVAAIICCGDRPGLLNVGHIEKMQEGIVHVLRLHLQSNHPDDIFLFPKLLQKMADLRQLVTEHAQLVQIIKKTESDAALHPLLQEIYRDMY
smiles,measurement,setting,value
CC(C)c1ccc2c(c1)c(SC(C)(C)C)c(CC(C)(C)C(=O)O)n2Cc1ccc(Cl)cc1 [MK886],inhibition of IL-8 mRNA expression induced by A2E,IL-8,37%
same,effect on endogenous PPAR transactivation induced by A2E,PPAR,did not significantly inhibit
same,reduction of IL-6 mRNA expression induced by A2E,IL-6,58.7%
CC1(C)CCC(C)(C)c2cc3c(cc21)Sc1ccccc1N=C3c1ccc(C(=O)O)cc1 [HX630],transactivation of RXRs by the compound alone,"RXR; HX630 5 μM, vs DMSO control",transactivation induced by HX630
CN1c2ccc([N+](=O)[O-])cc2N=C(c2ccc(C(=O)O)cc2)c2cc3c(cc21)C(C)(C)CCC3(C)C [HX531],inhibition of NF-κB transactivation induced by A2E,NF-κB,100%
same,inhibition of IL-8 mRNA expression induced by A2E,IL-8,99.6%
same,lowering of VEGF mRNA expression induced by A2E,VEGF,76.8%
same,inhibition of endogenous PPAR transactivation induced by A2E,"PPAR; NBX 20 μM, HX531 5 μM (HX531 effect not significant)",30%
same,reduction of IL-6 mRNA expression induced by A2E,IL-6,88.6%
same,inhibition of RXR transactivation induced by A2E,"RXR; A2E 20 μM, HX531 5 μM",50.1%
same,inhibition of AP-1 transactivation induced by A2E,AP-1,100%
CCCCCCCN(CCc1ccc(SC(C)(C)C(=O)O)cc1)C(=O)Nc1ccc(F)cc1F [GW9578],transactivation of over-expressed PPAR-α by the compound alone,PPAR-α [1],induced transactivation
same,binding affinity to PPAR-α,PPAR-α [2],nanomolar range
O=C(NCCS(=O)(=O)c1ccc(C(F)(F)F)cn1)c1ccc(Cl)cc1 [GSK3787],inhibition of IL-8 mRNA expression induced by A2E,IL-8,35%
same,effect on endogenous PPAR transactivation induced by A2E,PPAR,did not significantly inhibit
same,reduction of IL-6 mRNA expression induced by A2E,IL-6,45%
O=C(Nc1ccncc1)c1cc([N+](=O)[O-])ccc1Cl [T007907],inhibition of NF-κB transactivation induced by A2E,NF-κB,100%
same,effect of the compound alone on NF-κB transactivation,NF-κB; vs DMSO control,inhibited
same,inhibition of IL-8 mRNA expression induced by A2E,IL-8,45.9%
same,effect on endogenous PPAR transactivation induced by A2E,PPAR,did not significantly inhibit
same,reduction of IL-6 mRNA expression induced by A2E,IL-6,69.6%
same,effect of the compound alone on IL-6 mRNA expression,IL-6; vs DMSO control,enhanced
